Source: PubChem BioAssay (NCI)
“And” between values parts separate entries of the source, which are not always exact repeats. Equal values may be shown once.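 Method: 48-hour compound exposure of cells in 96-well plates, five concentrations, linear interpolation of endpoints. GI50: concentration for 50% inhibition of growth. TGI is the concentration that stops growth completely.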

Tests used:
Experiment in all cases: DTP human tumour cell line panel, 48 h
[1] = system: CAKI-1 renal
[2] = system: CCRF-CEM leukemia
[3] = system: HCT-116 colon
[4] = system: HOP-62 NSCLC
[5] = system: NCI-H226 lung
[6] = system: NCI-H23 lung
[7] = system: NCI-H460 lung
[8] = system: SF-295 CNS
[9] = system: SNB-75 CNS
[10] = system: TK-10 renal

SMILES	GI50 [1]	TGI [1]	GI50 [2]	TGI [2]	GI50 [3]	TGI [3]	GI50 [4]	TGI [4]	GI50 [5]	TGI [5]	GI50 [6]	TGI [6]	GI50 [7]	TGI [7]	GI50 [8]	TGI [8]	GI50 [9]	TGI [9]	GI50 [10]	TGI [10]
N#Cc1ccc(N2Cc3cc(Cl)ccc3OC3=C2C(=O)N(Cc2ccc(F)cc2)C3=O)cc1	186 nM	380 nM	229 nM	1090 nM	275 nM	934 nM	2720 nM	10100 nM	1620 nM	3750 nM	811 nM	2700 nM	1020 nM	3710 nM	4650 nM	14500 nM	558 nM	1720 nM	567 nM	1100 nM
Cc1cc(N2CCN(C)CC2)nc(N(CCNc2ccnc3cc(Cl)ccc23)Cc2ccco2)n1			3370 nM	10200 nM	2600 nM	10400 nM	2630 nM	9730 nM	19600 nM	37900 nM	6260 nM	21400 nM	3520 nM	11800 nM	1800 nM	3790 nM	4100 nM	19600 nM	2800 nM	11400 nM
O=C(O)CC1C(=O)OC2C3COC(=O)c4cc(O)c(O)c(O)c4-c4c(cc(O)c(O)c4O)C(=O)OC2C(OC(=O)c2cc(O)c(O)c4c2C1C(O)C(=O)O4)C(OC(=O)c1cc(O)c(O)c(O)c1)O3 (stereo not given)		42900 nM		37000 nM		27800 nM		> 100000 nM		> 100000 nM		> 100000 nM		31400 nM		> 100000 nM		41500 nM		> 100000 nM
O=C(NC1CCNCC1)c1[nH]ncc1NC(=O)c1c(Cl)cccc1Cl	14900 nM and 4090 nM	> 100000 nM	331 nM and 335 nM	> 100000 nM	315 nM and 285 nM	> 100000 nM	451 nM and 414 nM	> 100000 nM	346 nM and 325 nM	4010 nM and 2320 nM	1030 nM and 393 nM	9870 nM and 3230 nM	338 nM and 381 nM	> 45600 nM	1130 nM and 1010 nM	> 51800 nM	249 nM and 218 nM	766 nM and 674 nM	1490 nM and 1440 nM	6930 nM and > 10000 nM
CCCCCCCCCCCCNC(=O)[C@H]1CSC(c2cc(Br)cs2)N1 (stereo not given in full)	971 nM	2040 nM	1030 nM	2510 nM	909 nM	1740 nM	822 nM	1560 nM	895 nM	1760 nM	1530 nM	5110 nM	991 nM	1990 nM	1420 nM	5010 nM	851 nM	1560 nM	951 nM	1820 nM
O=C(N/N=C/c1ccncc1)c1ccc(C(F)(F)F)nc1Nc1cccc(C(F)(F)F)c1	1480 nM	4970 nM			1400 nM	10400 nM	2000 nM	7290 nM	2650 nM	11000 nM	4340 nM	16200 nM	2840 nM	10400 nM	1370 nM	3910 nM	4340 nM	17000 nM	2520 nM	11600 nM
COc1ccc(/C=C/c2ccnc3ccccc23)cc1		31600 nM		28700 nM		29100 nM		35900 nM		38200 nM		30600 nM		47700 nM		32700 nM				31700 nM
